According to US10538555B2, “Macrocyclic inhibitors of the PD-1/PD-L1 and CD80(B7-1)/PD-L1 protein/protein interactions” (BRISTOL-MYERS SQUIBB COMPANY, priority 2014, dated 2020):
*1 amine or outer side, *2 acyl side, *3 side chain or, on linkers, in order; H or OH if unused. Where a SMILES comes first, the peptide text is derived from it. Bridges are numbered along the chain shown (N, C = ends). [ ]: non-standard residue; d: D form. ξ: configuration not given here. Trp(1-CH2COOH) = N[C@@H](Cc1cn(CC(=O)O)c2ccccc12)C(=O)O; Phe(3,4,5-F3) = N[C@@H](Cc1cc(F)c(F)c(F)c1)C(=O)O; NMeAla(4-thiazolyl) = CN[C@@H](Cc1cscn1)C(=O)O; Phe(3,4-F2) = N[C@@H](Cc1ccc(F)c(F)c1)C(=O)O; NMePhe(4-F) = CN[C@@H](Cc1ccc(F)cc1)C(=O)O; Phe(4-F) = N[C@@H](Cc1ccc(F)cc1)C(=O)O; d(cisHyp) = O=C(O)[C@H]1C[C@@H](O)CN1; Bta = N[C@@H](Cc1csc2ccccc12)C(=O)O; NMeY = CN[C@@H](Cc1ccc(O)cc1)C(=O)O; Hyp = O=C(O)[C@@H]1C[C@@H](O)CN1; NMeF = CN[C@@H](Cc1ccccc1)C(=O)O; X1 = O=C([C@H]1COCCN1[*:1])[*:2]; NMeNle = CCCC[C@H](NC)C(=O)O; Pip = O=C(O)[C@@H]1CCCCN1; dPip = O=C(O)[C@H]1CCCCN1; hSer = N[C@@H](CCO)C(=O)O; NMeA = CN[C@@H](C)C(=O)O; Orn = NCCC[C@H](N)C(=O)O; Dab = NCC[C@H](N)C(=O)O; Dap = NC[C@H](N)C(=O)O; ξC = NC(CS)C(=O)O; Sar = CNCC(=O)O

What follows are molecules tested against T1, Human PD-L1/PD-1 (Homo sapiens, UniProt Q9NZQ7) (assay: HTRF Human PD-L1/PD-1 binding assay (PD-1-Ig/PD-L1-His)). Conditions: PD-L1-His 10 nM, PD-1-Ig 20 nM; class symbol; read-out: HTRF Human PD-L1/PD-1 Binding Assay IC50 Range.
T1 construct: TVMV protease cleavage site (C); made in house; host or cells: HEK293T cells
T1 sequence (Q9NZQ7 with tags, fused parts or gaps): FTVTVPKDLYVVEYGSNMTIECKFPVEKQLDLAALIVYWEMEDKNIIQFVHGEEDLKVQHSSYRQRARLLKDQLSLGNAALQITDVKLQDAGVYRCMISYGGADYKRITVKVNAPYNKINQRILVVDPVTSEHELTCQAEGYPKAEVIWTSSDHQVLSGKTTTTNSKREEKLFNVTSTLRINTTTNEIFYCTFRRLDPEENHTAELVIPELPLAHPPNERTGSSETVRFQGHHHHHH
Summary of the method: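 Soluble HEK293T-expressed proteins: hPD-L1-His 10 nM, hPD-1-Ig 20 nM final. Cpd + PD-L1 15 min, + PD-1 15 min, + Eu anti-Ig 1 nM/APC anti-His 20 nM 30 min. Buffer dPBS, 0.1% BSA, 0.05% Tween-20. TR-FRET 665/620.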

Row | IC50 [nM] | SMILES
1 | 100 to 990 | CCCC[C@H]1C(=O)N[C@@H](Cc2ccc(O)cc2)C(=O)N2CCCC[C@@H]2C(=O)N[C@@H](Cc2c[nH]c3ccccc23)C(=O)N[C@@H](Cc2ccc(O)cc2)C(=O)N[C@@H](CC(C)C)C(=O)N[C@H](C(=O)NCC(N)=O)CSCC(=O)N[C@@H](Cc2ccc(F)cc2)C(=O)N(C)[C@@H](Cc2ccccc2)C(=O)N(C)[C@@H](CCCC)C(=O)N2CCC[C@@H]2C(=O)N[C@@H](CC(=O)O)C(=O)N[C@@H](C(C)C)C(=O)N1C [Example 9214] ({CH2CO}-[Phe(4-F)][NMeF][NMeNle][dP]DV[NMeNle]Y[dPip]WYLCG-NH2; thioether N-13)
2 | 10 to 99.9 | CCCC[C@H]1C(=O)N(C)[C@@H](CCCC)C(=O)N[C@@H](CCCNC(=N)N)C(=O)NC(C(=O)NCC(N)=O)CSCC(=O)N[C@@H](Cc2ccc(O)cc2)C(=O)N(C)[C@@H](C)C(=O)N[C@@H](CC(N)=O)C(=O)N2CCC[C@H]2C(=O)N[C@@H](CC(N)=O)C(=O)N[C@@H](CC(N)=O)C(=O)N2CCC[C@H]2C(=O)N[C@@H](Cc2c[nH]c3ccccc23)C(=O)N[C@@H](CO)C(=O)N[C@@H](Cc2csc3ccccc23)C(=O)N1C (stereo partly drawn) [Example 10042] ({CH2CO}-Y[NMeA]NPNNPWS[Bta][NMeNle][NMeNle]R[ξC]G-NH2; thioether N-14)
3 | 1 to 9.9 | CCCC[C@H]1C(=O)N2CCC[C@@H]2C(=O)N[C@@H](CC(=O)O)C(=O)N[C@@H](C(C)C)C(=O)N(C)[C@@H](Cc2ccccc2)C(=O)N[C@@H](CCC(=O)O)C(=O)N2CCOC[C@@H]2C(=O)N[C@@H](Cc2c[nH]c3ccccc23)C(=O)N[C@@H](Cc2ccc(O)cc2)C(=O)N[C@@H](CCN)C(=O)N[C@H](C(=O)NCC(N)=O)CSCC(=O)N[C@@H](Cc2cc(F)c(F)c(F)c2)C(=O)N(C)[C@@H](Cc2ccc(F)cc2)C(=O)N1C [Example 10605] ({CH2CO}-[Phe(3,4,5-F3)][NMePhe(4-F)][NMeNle][dP]DV[NMeF]E[X1]WY[Dab]CG-NH2; thioether N-13)
4 | 1 to 9.9 | CCCC[C@H]1C(=O)N(C)[C@@H](CCCC)C(=O)N[C@@H](CN)C(=O)N[C@H](C(=O)NCC(N)=O)CSCC(=O)N[C@@H](Cc2ccc(O)cc2)C(=O)N2CCCC[C@H]2C(=O)N[C@@H](CC(N)=O)C(=O)N2CCC[C@H]2C(=O)N[C@@H](Cc2cnc[nH]2)C(=O)N[C@@H](CCC(N)=O)C(=O)N2C[C@H](O)C[C@H]2C(=O)N[C@@H](Cc2c[nH]c3ccccc23)C(=O)N[C@@H](CCN)C(=O)N[C@@H](Cc2cn(CC(=O)O)c3ccccc23)C(=O)N1C [Example 1298] ({CH2CO}-Y[Pip]NPHQ[Hyp]W[Dab][Trp(1-CH2COOH)][NMeNle][NMeNle][Dap]CG-NH2; thioether N-14)
5 | 1 to 9.9 | CCCC[C@H]1C(=O)N(C)[C@@H](CCCC)C(=O)N[C@@H](CCC(=O)O)C(=O)N[C@H](C(=O)NCC(N)=O)CSCC(=O)N[C@@H](Cc2ccc(O)cc2)C(=O)N(C)[C@@H](C)C(=O)N[C@@H](CC(=O)O)C(=O)N2CCC[C@H]2C(=O)N[C@@H](CN)C(=O)N[C@@H](CC(C)C)C(=O)N2C[C@H](O)C[C@H]2C(=O)N[C@@H](Cc2c[nH]c3ccccc23)C(=O)N[C@@H](CO)C(=O)N[C@@H](Cc2c[nH]c3ccccc23)C(=O)N1C [Example 5164] ({CH2CO}-Y[NMeA]DP[Dap]L[Hyp]WSW[NMeNle][NMeNle]ECG-NH2; thioether N-14)
6 | 1 to 9.9 | CCCC[C@H]1C(=O)N2CCOC[C@@H]2C(=O)N[C@@H](CC(=O)O)C(=O)N[C@@H](C(C)C)C(=O)N(C)[C@@H](Cc2ccccc2)C(=O)N[C@@H](CCC(=O)O)C(=O)N2CCOC[C@@H]2C(=O)N[C@@H](Cc2c[nH]c3ccccc23)C(=O)N[C@@H](Cc2ccc(O)cc2)C(=O)N[C@@H](CC(C)C)C(=O)N[C@H](C(=O)NCC(N)=O)CSCC(=O)N[C@@H](Cc2ccc(F)c(F)c2)C(=O)N(C)[C@@H](Cc2ccccc2)C(=O)N1C [Example 9281] ({CH2CO}-[Phe(3,4-F2)][NMeF][NMeNle][X1]DV[NMeF]E[X1]WYLCG-NH2; thioether N-13)
7 | 10 to 99.9 | CC(C)C[C@@H]1NC(=O)[C@H](Cc2ccc(O)cc2)NC(=O)[C@H](Cc2c[nH]c3ccccc23)NC(=O)[C@H]2CCCCN2C(=O)[C@H](CCC(=O)O)NC(=O)[C@H](Cc2ccccc2)N(C)C(=O)[C@H](C(C)C)NC(=O)[C@H](CC(=O)O)NC(=O)[C@H]2CCCN2C(=O)[C@H](Cc2ccccc2)N(C)C(=O)[C@H](Cc2ccc(F)cc2)N(C)C(=O)[C@H](Cc2cc(F)c(F)c(F)c2)NC(=O)CSC[C@@H](C(=O)NCC(N)=O)NC1=O [Example 10614] ({CH2CO}-[Phe(3,4,5-F3)][NMePhe(4-F)][NMeF][dP]DV[NMeF]E[dPip]WYLCG-NH2; thioether N-13)
8 | 1 to 9.9 | CCCC[C@H]1C(=O)N2CCC[C@@H]2C(=O)N[C@@H](CC(=O)O)C(=O)N[C@@H](C(C)C)C(=O)N(C)[C@@H](Cc2ccccc2)C(=O)N[C@@H](CC(=O)O)C(=O)N2CCC[C@@H]2C(=O)N[C@@H](Cc2c[nH]c3ccccc23)C(=O)N[C@@H](Cc2ccc(O)cc2)C(=O)N[C@@H](CCO)C(=O)N[C@H](C(=O)NCC(N)=O)CSCC(=O)N[C@@H](Cc2cc(F)c(F)c(F)c2)C(=O)N(C)[C@@H](Cc2ccccc2)C(=O)N1C [Example 10170] ({CH2CO}-[Phe(3,4,5-F3)][NMeF][NMeNle][dP]DV[NMeF]D[dP]WY[hSer]CG-NH2; thioether N-13)
9 | 1 to 9.9 | CCCC[C@H]1C(=O)N2C[C@H](O)C[C@@H]2C(=O)N[C@@H](CC(=O)O)C(=O)N[C@@H](C(C)C)C(=O)N(C)[C@@H](Cc2ccccc2)C(=O)N[C@@H](CCC(N)=O)C(=O)N2C[C@H](O)C[C@@H]2C(=O)N[C@@H](Cc2c[nH]c3ccccc23)C(=O)N[C@@H](Cc2ccc(O)cc2)C(=O)N[C@@H](CCN)C(=O)N[C@H](C(=O)NCC(N)=O)CSCC(=O)N[C@@H](Cc2cc(F)c(F)c(F)c2)C(=O)N(C)[C@@H](Cc2ccccc2)C(=O)N1C [Example 9355] ({CH2CO}-[Phe(3,4,5-F3)][NMeF][NMeNle][d(cisHyp)]DV[NMeF]Q[d(cisHyp)]WY[Dab]CG-NH2; thioether N-13)
10 | 10 to 99.9 | CCCC[C@H]1C(=O)N(C)CC(=O)N[C@@H](CC(N)=O)C(=O)N[C@@H](C(C)C)C(=O)N(C)[C@@H](Cc2ccccc2)C(=O)N[C@@H](Cc2ccc(O)cc2)C(=O)N(C)CC(=O)N[C@@H](Cc2c[nH]c3ccccc23)C(=O)N[C@@H](Cc2ccc(O)cc2)C(=O)N[C@@H](CCCN)C(=O)N[C@H](C(=O)NCC(N)=O)CSCC(=O)N[C@@H](Cc2ccccc2)C(=O)N(C)[C@@H](Cc2cscn2)C(=O)N1C [Example 3616] ({CH2CO}-F[NMeAla(4-thiazolyl)][NMeNle][Sar]NV[NMeF]Y[Sar]WY[Orn]CG-NH2; thioether N-13)
11 | 1 to 9.9 | CCCC[C@H]1C(=O)N(C)[C@@H](CCCC)C(=O)N[C@@H](CCC(=O)O)C(=O)N[C@H](C(=O)NCC(N)=O)CSCC(=O)N[C@@H](Cc2ccc(O)cc2)C(=O)N(C)[C@@H](C)C(=O)N[C@@H](CC(=O)O)C(=O)N2CCC[C@H]2C(=O)N[C@@H](Cc2c[nH]cn2)C(=O)N[C@@H](CCCCNC(C)=O)C(=O)N2C[C@H](O)C[C@H]2C(=O)N[C@@H](Cc2c[nH]c3ccccc23)C(=O)N[C@@H](CO)C(=O)N[C@@H](Cc2c[nH]c3ccccc23)C(=O)N1C [Example 5255] ({CH2CO}-Y[NMeA]DPHK(Ac)[Hyp]WSW[NMeNle][NMeNle]ECG-NH2; thioether N-14)
12 | 1 to 9.9 | CCCC[C@H]1C(=O)N(C)[C@@H](C)C(=O)N[C@@H](CCCNC(=N)N)C(=O)NC(C(=O)NCC(N)=O)CSCC(=O)N[C@@H](Cc2ccc(O)cc2)C(=O)N(C)[C@@H](C)C(=O)N[C@@H](CC(N)=O)C(=O)N2CCC[C@H]2C(=O)N[C@@H](CC(N)=O)C(=O)N[C@@H](CC(C)C)C(=O)N2CCC[C@H]2C(=O)N[C@@H](Cc2c[nH]c3ccccc23)C(=O)N[C@@H](CO)C(=O)N[C@@H](Cc2csc3ccccc23)C(=O)N1C (stereo partly drawn) [Example 9137] ({CH2CO}-Y[NMeA]NPNLPWS[Bta][NMeNle][NMeA]R[ξC]G-NH2; thioether N-14)

Same assay, conditions: PD-L1-His 10 nM, PD-1-Ig 20 nM; read-out: HTRF Human PD-L1/PD-1 Binding Assay IC50

Row | IC50 [nM] | SMILES
13 | 10.6 | CCCC[C@H]1C(=O)N2CCC[C@@H]2C(=O)N[C@@H](CC(=O)O)C(=O)N[C@@H](C(C)C)C(=O)N(C)[C@@H](Cc2ccccc2)C(=O)N[C@@H](CCC(=O)O)C(=O)N2CCOC[C@@H]2C(=O)N[C@@H](Cc2c[nH]c3ccccc23)C(=O)N[C@@H](Cc2ccc(O)cc2)C(=O)N[C@@H](CCN)C(=O)N[C@H](C(=O)NCC(N)=O)CSCC(=O)N[C@@H](Cc2cc(F)c(F)c(F)c2)C(=O)N(C)[C@@H](Cc2ccc(O)cc2)C(=O)N1C [Example 10616] ({CH2CO}-[Phe(3,4,5-F3)][NMeY][NMeNle][dP]DV[NMeF]E[X1]WY[Dab]CG-NH2; thioether N-13)
14 | 151 | CCCC[C@H]1C(=O)N2C[C@H](O)C[C@@H]2C(=O)N[C@@H](CC(=O)O)C(=O)N[C@@H](C(C)C)C(=O)N(C)[C@@H](Cc2ccccc2)C(=O)N[C@@H](CCC(N)=O)C(=O)N2C[C@H](O)C[C@@H]2C(=O)N[C@@H](Cc2c[nH]c3ccccc23)C(=O)N[C@@H](Cc2ccc(O)cc2)C(=O)N[C@@H](CN)C(=O)N[C@H](C(=O)NCC(N)=O)CSCC(=O)N[C@@H](Cc2cc(F)c(F)c(F)c2)C(=O)N(C)[C@@H](Cc2ccccc2)C(=O)N1C [Example 9356] ({CH2CO}-[Phe(3,4,5-F3)][NMeF][NMeNle][d(cisHyp)]DV[NMeF]Q[d(cisHyp)]WY[Dap]CG-NH2; thioether N-13)
15 | 10 | CC(C)C[C@@H]1NC(=O)[C@H](Cc2ccc(O)cc2)NC(=O)[C@H](Cc2c[nH]c3ccccc23)NC(=O)[C@H]2CCCCN2C(=O)[C@H](Cc2ccc(O)cc2)NC(=O)[C@H](Cc2ccccc2)N(C)C(=O)[C@H](C(C)C)NC(=O)[C@H](CC(=O)O)NC(=O)[C@H]2CCCN2C(=O)[C@H](C)N(C)C(=O)[C@H](Cc2ccc(F)cc2)N(C)C(=O)[C@H](Cc2ccccc2)NC(=O)CSC[C@@H](C(=O)NCC(N)=O)NC1=O [Example 10543] ({CH2CO}-F[NMePhe(4-F)][NMeA][dP]DV[NMeF]Y[dPip]WYLCG-NH2; thioether N-13)
